Structure (SMILES) | melting point
CC(O)(Cc1ccc(C#N)cc1)Cc1ccc(C#N)cc1 | 147 to 148 °C
CC(C)Cc1nnc2n1-c1ccc(Br)cc1C(c1ccccc1)=NC2 | 93 to 95 °C
Sc1nccn1-c1nccs1 | 211 to 213 °C
O=C(O)Cn1c(=O)c2ccccc2n(CCCCN2CCC(OC(c3ccccc3)c3ccccc3)CC2)c1=O | 184 to 186 °C
CC(C)(C)C(OC(=O)Nc1ccccc1)C(=CC1CCCCC1)n1cncn1 (stereo not drawn) | 156 °C
COc1ccc(OC)c2[nH]ccc12 | 193 to 195 °C
CCCCCCCC(O)C(O)Cc1cc(C(N)=O)ccc1C(N)=O (stereo not drawn) | 118 °C
Cn1cc(S(C)(=O)=O)c(=O)c2ccc(C(F)(F)F)cc21 | 300 to 301 °C
Cc1c(Br)c(=O)n(C2CCCC2)c2nc(Nc3ccc(N4CCOCC4)nc3)ncc12 | 254 to 256 °C
CC1=C(C)CC(C(=O)O)OC1 (stereo not drawn) | 82 to 84 °C
CCOC(=O)C=Cc1ccc(OC)c(-c2cc3c(cc2OCCCCCC(=O)OC(C)(C)C)C(C)(C)CCC3(C)C)c1 | 130 to 132 °C
OCc1c(Br)c(Br)c(Br)c(CO)c1Br | 248 to 252 °C
O=[N+]([O-])c1ccc2c(c1)CCN(Cc1ncn[nH]1)C2 | 163 to 166 °C
C=C(c1ccc(N2CCCC2)cc1)c1ccc(N2CCCC2)cc1 | 211 °C
Nc1nc(N)nc(N2CCC3(CC2)OCCO3)n1 | 209 to 211 °C
CC(C)(CCc1ccc(NC=NO)cc1)CN1CCCC1 | 120 to 122 °C
COc1ccc(C2CCN(c3c(C)c(C)c4c(c3C)C(O)(c3ccccc3)C(C)(C)O4)CC2)cc1OC (stereo not drawn) | 143 to 145 °C
CC(C)(C)c1ccc(OP2N(c3ccccc3)P(Oc3ccc(C(C)(C)C)cc3C(C)(C)C)N2c2ccccc2)c(C(C)(C)C)c1 (stereo not drawn) | 162 to 166 °C
CCCCCn1cc(C(=O)O)c2ccc(Cl)cc21 | 152 to 154 °C
Cc1ccc(C2(C(=O)O)CC2C(=O)O)cc1 (single isomer, unassigned; (-)) | 145 to 148 °C
Nc1ncc2c(n1)CCC(CNC(=O)[C@@H]1CCCN1C(=O)[C@@H](CC1CCCCC1)NS(=O)(=O)Cc1ccccc1)C2 (stereo partly drawn) | 118 to 121 °C
CC(C)(C)OC(=O)N1CC2(C[C@H]1C(=O)OCOC(=O)C(C)(C)C)SCCS2 | 79.5 to 81 °C
Brc1cccc(C2Cc3cnc(Nc4ccc(CCN5CCOCC5)cc4)nc3-c3ccccc32)c1 (stereo not drawn) | 86 to 88 °C

Structure (SMILES) | melting point
CCCCn1ccc(C=O)cc1=O | 36 to 40 °C
CC(=O)OCC(=O)C1(O)C(C)CC2C3CCC4=CC(=O)C=CC4(C)C34OC4CC21C (stereo not drawn) | 180 to 186 °C
CCN1C(=O)C2Cc3c([nH]c4ccccc34)C(c3ccc(N(C)C)cc3)N2C1=O (stereo not drawn) | 262 to 265 °C
CCNC(=O)[C@@H]1C[C@H](SCc2ccc(OC)cc2)CN1CC | 60 to 61 °C
Nc1cc(Cl)nc(SC/C=C/C(=O)N2CCOCC2)n1 | 154 to 157 °C
CC(C)(C)OC(=O)N1CCc2ccc(NS(C)(=O)=O)cc2CC1 | 153 to 154 °C
CC(C)CCc1c(C(C)C)nc(C(C)C)c(CO)c1-c1ccc(F)cc1 | 43 to 45 °C
OC(COc1ccc2nncn2n1)CN1CCN(C(c2ccccc2)c2ccccc2)CC1 (stereo not drawn) | 95 to 97 °C
CCCNC(=S)NCCCn1c(CCOC)nc2c(N)nc3ccccc3c21 | 172 to 173 °C
Sc1nncn1C1CCCCC1 | 162 to 165 °C
CCOC(=O)c1cn(N)c2c(F)c(F)c(F)cc2c1=O | 217 °C
OC1(C#Cc2ccc(Br)cn2)CN2CCC1CC2 (stereo not drawn) | 194 to 198 °C
COc1ccc(CNc2cc(Cn3c(C(=O)c4cc(C)cc(C)c4)c(C(C)C)c(=O)[nH]c3=O)cc(F)n2)cc1 | 120 to 122 °C
NS(=O)(=O)c1cc2cc3c(cc2[nH]1)OCO3 | 234 to 237 °C
CC(=O)NNc1ccc(N(Cc2ccccc2)C(=S)Nc2ccccc2)cc1 | 114 to 117 °C
O=C(N[C@H]1CC[C@H](CCN2CCN(c3nccc4c3CCO4)CC2)CC1)c1ccnc2ccccc12 | 210 °C
COc1c(Cl)cc(OCC=C(Cl)Cl)cc1C=NO | 111 °C
CC(=C1SCCCS1)c1ccc(N2CCN(C)CC2)cc1 | 91 to 92 °C
N#CC1(C#N)C2CCC(C2)C1(Cl)Cl (stereo not drawn) | 148 °C
Cc1cc(C)n2ncc(I)c2n1 | 120 to 122 °C
COC(=O)CCC#Cc1cc(F)c(Cl)cc1N | 67 to 68 °C
Cc1ccccc1N1CCN(CCn2c(=N)sc3cc(OC(F)(F)F)ccc32)CC1 | 135 °C

Second part, the molecule after the results:

melting point | Structure (SMILES)
115 to 118 °C | Cc1cccc(C)c1N(Cn1cncn1)C(=O)CCl
132 °C | C=CC[C@@](O)(C(=O)O)c1ccccc1
241 to 242 °C | O=C(O)c1cccc(-c2nc(-c3cc(Cl)sc3Cl)cs2)c1
144 °C | O=C(O)CCCCCN1C(=O)c2cccc([N+](=O)[O-])c2C1=O
193 to 194 °C | O=C(c1ccccc1)c1ccc(OCCc2c[nH]cn2)cc1
187 to 188 °C | Cc1c2c(nc3ccccc13)C(=Cc1ccc(Cl)c(Cl)c1)CC2
253 to 255 °C | Cn1cc(C(=O)O)c(Nc2ccc(F)cc2F)cc1=O
198 to 200 °C | CSc1ncc2cc(-c3c(Cl)cccc3Cl)c(=N)n(C)c2n1
188 to 189 °C | O=C1OC2(CCC2)C(O)=C1c1ccccc1
95 °C | N#Cc1cccc(CCC(=O)O)c1
152 to 153 °C | O=C(c1ccccc1CBr)c1cc(Cl)ccc1CBr
178 to 183 °C | CN(Cc1cccc(Cl)c1)c1ccc(C(N)=O)nc1
244 to 247 °C | CC1CCc2c(N3CCC(O)CC3)c(F)cc3c(=O)c(C(=O)O)cn1c23 (stereo not drawn)
147 to 148 °C | CCOC(=O)c1cc(-n2c(=O)ccn(C)c2=O)ccc1Cl
121 to 122 °C | CC1CCCCC1OC(=O)c1cc(NC(=O)c2ccccc2)ccc1Cl (stereo not drawn)
143 to 146 °C | O=C(O)CCC(=O)C(Cc1ccccc1)NC(=O)c1ccccc1 (stereo not drawn)
126 to 128 °C | Cc1cccc2c(-c3ccc(Br)cc3)nccc12
> 300 °C | Cn1c(=O)c2nc(-c3ccc(/C=C/C(=O)O)cc3)[nH]c2n(Cc2cccc(C#N)c2)c1=O
128 to 129 °C | CCCNc1cc(-c2c(-c3cccc(C)c3)nc3cccnn23)ccn1
70 to 71 °C | CC(=O)n1nc(C)c2ccccc21

melting point | Structure (SMILES)
54 °C | Cc1cccc(OC2SCC(O)C(O)C2O)n1 (stereo not drawn)
176 °C | CS(=O)(=O)C(=C1CN(C(c2ccccc2)c2ccccc2)C1)c1cc(F)ccc1F
91 to 93 °C | CCCSc1c2ccccc2nc2c1c(C)nn2-c1ccccn1
153 to 154 °C | CCCc1nn(Cc2ccc(OCc3nc(-c4ccccc4)oc3C)cc2)cc1CCC(=O)O
156 to 158 °C | FC(F)(F)c1cc(Cl)c(-n2cc(C3CC3(Br)Br)nn2)c(Cl)c1 (stereo not drawn)
226 °C | CCCC(=O)N(Cc1cccc2c1S(=O)(=O)N=C2C1=C(O)C(C(C)(C)C)N(Cc2ccc(F)c(C)c2)C1=O)S(C)(=O)=O (stereo not drawn)
173 °C | O=C(Nc1ccc(C[C@H](NS(=O)(=O)N2CCSCC2)C(=O)O)cc1)c1c(Cl)cncc1Cl
298 to 301 °C | O=C(NCc1ccc(Cl)cc1)c1cnc2c(F)cc(-c3cccs3)cc2c1O
211 to 214 °C | On1c(C(F)(F)F)nc2c(OCc3ccccc3)cc(Br)cc21
< 40 °C | CCCCCN1OCCN(c2ccc(Cl)c(Cl)c2)C1=O
130 to 133 °C | Fc1ccc2onc(CCCN3CCN(c4cc5ccccc5cn4)CC3)c2c1
118 to 120 °C | Cc1cc(O)ccc1-n1cc(C(=O)O)c(=O)cc1C1CCCCCCC1
200 to 203 °C | FC(F)(F)c1csc(Nc2cc3ccccc3cn2)n1
113 to 115 °C | COc1cc(CCc2ccc(O)c(O)c2)cc(OC)c1OC
134 to 135 °C | Cc1c(Cl)cccc1Nc1ncccc1[N+](=O)[O-]
211 to 213 °C | c1ccc(-c2ccc3c(c2)CCN(Cc2c[nH]c4ncccc24)C3)cc1
160 to 162 °C | Oc1c(C(Nc2ccc(Cl)cn2)c2ccccn2)ccc2cccnc12 (stereo not drawn)
126 to 130 °C | Cc1[nH]cnc1Cc1cccc(CO)c1O
146 to 147 °C | CCc1cnc(N2CCN(C(=O)c3cccc(Nc4ncnc5ccccc45)c3)CC2)nc1
165 to 168 °C | O=C(O)c1cccc(-c2ccc(OC[C@H](O)CCc3cccnc3)cc2)c1

melting point | Structure (SMILES)
112 to 115 °C | Oc1c(C(O)(C(F)(F)F)C(F)(F)F)cc(Br)c2ccccc12
245 to 247 °C | Cc1ccc2[nH]c(-c3ccc(S(C)(=O)=O)cc3)c(-c3ccccc3)c2c1
173 to 174 °C | NC(=O)c1csc(-c2cccc(N)c2)n1
264 to 266 °C | COc1cc2c(cc1OC)-c1ncc(C(=O)O)c(=O)n1CC2
195 to 196 °C | O=C(O)CC1CCCc2c1n(Cc1ccc(F)cc1)c1c(F)cc(F)cc21 (stereo not drawn)
206 to 208 °C | COc1ccc(N2CCCN(c3ccnc4sc(C(N)=O)c(N)c34)CC2)cc1
125 to 126 °C | COc1ccc2c(C)c(-c3c(OC)cccc3OC(C)=O)c(=O)oc2c1
172 to 173 °C | OCCOCCN1CCN(C2=Nc3ccccc3Sc3ccccc32)CC1
156 to 158 °C | CSc1ccc(C2=C(Cl)C(=O)OC2)cc1
68 to 69 °C | CCc1nc(-c2cccc(C)c2)c(-c2ccnc(CC#N)c2)s1
121 to 127 °C | COc1cc(I)c(C(C)=NOCc2ccc([N+](=O)[O-])cc2)cc1O
76 to 80.5 °C | O=C(c1cc(Cl)ccc1O)c1ccccc1F
163 to 165 °C | O=C(NCc1ccccc1)c1ccc(-c2ccc3nnn(Cc4ccc5ncccc5c4)c3n2)cc1F
175 to 176 °C | Cc1nc(N2CCC(Cc3ccc(C(F)(F)F)cc3)C2=O)sc1C(=O)NCc1ccc(F)cc1 (stereo not drawn)
112 °C | CCc1ccc(Nc2c(C(=O)NOCCO)ccc(F)c2F)c(F)c1
122 to 123 °C | CC(=O)Nc1cccc(-c2nn(Cc3oc4ccccc4c(=O)c3-c3ccccc3)c3ncnc(N)c23)c1
115 to 131 °C | CC(=O)Nc1cc(/C=C/C(=O)NCC(=O)N(C)c2ccc(Cl)c(COc3cccc4ccc(C)nc34)c2Cl)ccn1
114 to 115 °C | CCOC(=O)c1cn(-c2ncc(Cl)cc2Cl)cn1

Reference: a melting point compilation (Tetko et al.; mined from patent text by program, amines drawn as free bases though some values may be those of a salt)
